The results in this text go back to paper PMC3272345 (Chemmedchem, 2011).

The first series concerns the target T1, Leishmania CRK3–CYC6 (Leishmania mexicana, UniProt O15851).
T1 sequence (O15851 1-311): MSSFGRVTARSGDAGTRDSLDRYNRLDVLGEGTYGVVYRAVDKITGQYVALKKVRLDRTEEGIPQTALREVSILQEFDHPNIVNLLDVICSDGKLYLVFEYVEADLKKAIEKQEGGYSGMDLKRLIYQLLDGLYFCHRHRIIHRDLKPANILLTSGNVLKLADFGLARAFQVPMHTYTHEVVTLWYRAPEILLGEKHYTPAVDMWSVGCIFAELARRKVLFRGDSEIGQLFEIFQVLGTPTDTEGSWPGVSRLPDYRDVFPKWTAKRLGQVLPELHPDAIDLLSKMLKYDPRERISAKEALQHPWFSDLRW
T1 sequence (Q4Q4U0 1-303 partner): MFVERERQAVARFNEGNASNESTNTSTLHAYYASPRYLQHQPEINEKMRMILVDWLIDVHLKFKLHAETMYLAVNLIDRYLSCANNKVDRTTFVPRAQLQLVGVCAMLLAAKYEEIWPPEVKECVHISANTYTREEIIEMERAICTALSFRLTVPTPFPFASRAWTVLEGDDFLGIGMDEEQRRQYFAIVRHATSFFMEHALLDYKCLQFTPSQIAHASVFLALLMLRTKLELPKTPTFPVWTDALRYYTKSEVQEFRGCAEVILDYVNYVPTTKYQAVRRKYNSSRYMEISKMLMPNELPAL
In words: radiometric CRK3 assay. The series is classed as biochemical, L. mexicana CRK3, L. major CYC6. The conditions noted are these: CRK3–CYC6 IC50 [μM], mean of two or more experiments; 1 μM ATP.
The term IC50 denotes the concentration at which inhibition is half-maximal. A high value points to a need for much substance. In turn, `O=C1C=C(NC(=O)Nc2ccccc2)CCC1` [Compound 61] came in with a half-maximal inhibitory concentration (IC50) above 100 µM.

`Cc1cccc(-c2ccc3nc(NCC4CCCCC4)nn3c2)c1` [Compound 36] gave an IC50 of 3 µM.

`CC1(C)CC(=O)C=C(NC(=O)Nc2ccc(OCc3ccccc3)cc2)C1` [Compound 58] yielded an IC50 of 0.11 µM.

On to `COc1cccc(NC(=O)NC2=CC(=O)CC(C)(C)C2)c1` [Compound 56, 1-(5,5-Dimethyl-3-oxocyclohex-1-en-1-yl)-3-(3-methoxyphenyl)urea], for which the IC50 stood at 0.04 µM.

The compound `CC1(C)CC(=O)C=C(NC(=O)NC2CCCCC2)C1` [Compound 54, 1-Cyclohexyl-3-(5,5-dimethyl-3-oxocyclohex-1-en-1-yl)urea] came in with an IC50 of 0.098 µM.

As for `O=C(Nc1cc(-c2ccc(Cl)cc2)[nH]n1)C1CCC1` [Compound 7, N-(5-(4-Chlorophenyl)-1H-pyrazol-3-yl)cyclobutanecarboxamide], the IC50 was found to be 0.9 µM.

For the compound `COc1ccc(NC(=O)NC2=CC(=O)CC(C)(C)C2)cc1` [Compound 57], the IC50 is 0.89 µM.

`CC1(C)CC(=O)C=C(NC(=O)Nc2ccccc2)C1` [Compound 50] came in with an IC50 of 0.095 µM.

Turning to `CC(=O)Nc1cc(-c2ccc(Cl)cc2)n[nH]1` [Compound 2, N-(5-(4-Chlorophenyl)-1H-pyrazol-3-yl)acetamide], half-maximal inhibition (IC50) was put at 3 µM. Compared with the last compound, the IC50 is about 32-fold higher.

Regarding `COc1ccccc1NC(=O)NC1=CC(=O)CC(C)(C)C1` [Compound 55], the IC50 was found to be 8 µM. This IC50 is about 2.7-fold higher than that of the compound before.

Staying with this series, now noted: potency (IC50) in radiometric Leishmania CRK3 assay.
As for `CN[C@@H]1C[C@H]2O[C@@](C)([C@@H]1OC)n1c3ccccc3c3c4c(c5c6ccccc6n2c5c31)C(=O)NC4` [staurosporine, reference compound], the midpoint of inhibition, the IC50, lay at 0.0091 µM.

In a further series the target is T2, Leishmania CRK3–CYC6 complex (Leishmania mexicana, UniProt O15851).
T2 sequence (O15851 1-311): T1 sequence (O15851 1-311)
T2 sequence (Q4Q4U0 1-303 partner): T1 sequence (Q4Q4U0 1-303 partner)
Nature of the series: IMAP-FP primary screen. It is filed as biochemical, L. mexicana CRK3, L. major CYC6.
Settings: not given
Consider `CN[C@@H]1C[C@H]2O[C@@](C)([C@@H]1OC)n1c3ccccc3c3c4c(c5c6ccccc6n2c5c31)C(=O)NC4` [staurosporine, reference compound], for which the IC50 was found to be 29 nM.

The same series, now with this note: read-out: CRK3–CYC6 Inhib. [%].
On to `O=C(Nc1cc(-c2ccc(Cl)cc2)[nH]n1)c1cccnc1` [Compound 10, N-(5-(4-Chlorophenyl)-1H-pyrazol-3-yl)nicotinamide], for which the inhibition at 30 µM came to 100%.

Turning to `O=C(Nc1cc(-c2ccc(Cl)cc2)[nH]n1)C1CCCCC1` [Compound 11, N-[5-(4-Chlorophenyl)-1H-pyrazol-3-yl]cyclohexanecarboxamide], the inhibition at 30 µM is 100%.

As for `O=C(Nc1cc(-c2ccc(Cl)cc2)[nH]n1)C1CCC1` [Compound 7, N-(5-(4-Chlorophenyl)-1H-pyrazol-3-yl)cyclobutanecarboxamide], the inhibition at 30 µM is 99%.

For `CC(=O)Nc1cc(-c2ccc(Cl)cc2)n[nH]1` [Compound 2, N-(5-(4-Chlorophenyl)-1H-pyrazol-3-yl)acetamide], the inhibition at 30 µM came out at 74%.

A further series deals with HsCDK2–CYCA (Homo sapiens, UniProt P24941). In words: radiometric CDK2 counter-screen. The series is classed as biochemical. The conditions noted are these: HsCDK2–CYCA IC50 [μM], mean of two or more experiments; 1 μM ATP. In general terms: A counterscreen serves to expose hits that act by an unwanted route or on another target.
With `O=C1C=C(NC(=O)Nc2ccccc2)CCC1` [Compound 61], the IC50 was above 100 µM.

For the compound `Cc1cccc(-c2ccc3nc(NCC4CCCCC4)nn3c2)c1` [Compound 36], half-maximal inhibition (IC50) required 64 µM.

For `CC1(C)CC(=O)C=C(NC(=O)Nc2ccc(OCc3ccccc3)cc2)C1` [Compound 58], the IC50 is above 100 µM.

`COc1cccc(NC(=O)NC2=CC(=O)CC(C)(C)C2)c1` [Compound 56, 1-(5,5-Dimethyl-3-oxocyclohex-1-en-1-yl)-3-(3-methoxyphenyl)urea] returned an IC50 above 100 µM.

For `CC1(C)CC(=O)C=C(NC(=O)NC2CCCCC2)C1` [Compound 54, 1-Cyclohexyl-3-(5,5-dimethyl-3-oxocyclohex-1-en-1-yl)urea], the IC50 is above 100 µM.

`O=C(Nc1cc(-c2ccc(Cl)cc2)[nH]n1)C1CCC1` [Compound 7, N-(5-(4-Chlorophenyl)-1H-pyrazol-3-yl)cyclobutanecarboxamide]: half-maximal inhibition (IC50) was put at 1.2 µM.

The compound `COc1ccc(NC(=O)NC2=CC(=O)CC(C)(C)C2)cc1` [Compound 57] gave an IC50 above 100 µM.

`COC(=O)c1ccc(NC(=O)NC2=CC(=O)CC(C)(C)C2)cc1` [Compound 59] displayed an IC50 above 100 µM.

`CC1(C)CC(=O)C=C(NC(=O)Nc2ccccc2)C1` [Compound 50]: the IC50 was above 100 µM.

Turning to `CC(=O)Nc1cc(-c2ccc(Cl)cc2)n[nH]1` [Compound 2, N-(5-(4-Chlorophenyl)-1H-pyrazol-3-yl)acetamide], the midpoint of inhibition, the IC50, lay at 1.6 µM.

In turn, `CC1(C)CC(=O)C=C(NC(=O)Nc2ccc(O)cc2)C1` [Compound 60] returned an IC50 of 5.9 µM. Compared with the last compound, the IC50 is about 3.7-fold higher.

`COc1ccccc1NC(=O)NC1=CC(=O)CC(C)(C)C1` [Compound 55] showed an IC50 above 100 µM.

A further series concerns panel of 76 human kinases. In words: DSTT Dundee kinase panel. It is filed as biochemical. The following applies: 10 μM.
With `CC1(C)CC(=O)C=C(NC(=O)Nc2ccc(OCc3ccccc3)cc2)C1` [Compound 58], the “selectivity against panel of 76 human kinases (in words)” value (“selectivity against panel” below) is given as “highly selective”.

Take `O=C(Nc1cc(-c2ccc(Cl)cc2)[nH]n1)C1CCCCC1` [Compound 11, N-[5-(4-Chlorophenyl)-1H-pyrazol-3-yl]cyclohexanecarboxamide]: the “selectivity against panel” value is reported as “highly selective”.

As to `COC(=O)c1ccc(NC(=O)NC2=CC(=O)CC(C)(C)C2)cc1` [Compound 59], the “selectivity against panel” value is “highly selective”.

The same series, now with this note: of 76 kinases.
Take `O=C(Nc1cc(-c2ccc(Cl)cc2)[nH]n1)C1CCCCC1` [Compound 11, N-[5-(4-Chlorophenyl)-1H-pyrazol-3-yl]cyclohexanecarboxamide]: the “number of human kinases with >50 % inhibition at 10 μM” value was “three”.

System in the next series: not listed separately
In words: mammalian cell line counter-screen. The series is classed as cell-based. The conditions noted are these: human, MRC5 cells.
For orientation: EC50 means the concentration giving half of the maximal effect. The low end stands for higher potency in that assay, the high end for lower potency in that assay. The compound `CC1(C)CC(=O)C=C(NC(=O)Nc2ccccc2)C1` [Compound 50] returned an EC50 of at least 50000 nM.
